Data taken from ChEMBL document CHEMBL2407053, “Pharbinilic acid, an allogibberic acid from morning glory (Pharbitis nil)” (J Nat Prod, 2013).

Columns and labels:
[1] = tested on: BV-2; experiment: Antiinflammatory activity against mouse BV2 cells assessed as inhibition of LPS-induced NO production incubated for 30 mins prior to LPS-challenge measured after 24 hrs by Griess assay; format: functional, cell-based
[2] = tested on: SK-MEL-2; experiment: Cytotoxicity against human SK-MEL-2 cells by sulforhodamine B assay; format: functional, cell-based
[3] = tested on: SK-OV-3; experiment: Cytotoxicity against human SKOV3 cells by sulforhodamine B assay; format: functional, cell-based
[4] = tested on: A549; experiment: Cytotoxicity against human A549 cells by sulforhodamine B assay; format: functional, cell-based
[5] = tested on: HCT-15; experiment: Cytotoxicity against human HCT15 cells by sulforhodamine B assay; format: functional, cell-based
[6] = tested on: BV-2; experiment: Cytotoxicity against mouse BV2 cells by MTT assay; format: cell-based

IC50 [1]: 32.9 µM
Compound: C=C1C[C@]23C[C@@]1(O)CC[C@H]2c1cc2c(C(=O)O)coc2c(C)c1[C@@H]3C(=O)O
IC50 [2]: 8.36 µM
IC50 [3]: 4.83 µM
IC50 [4]: 15.7 µM
IC50 [5]: 6.79 µM
Activity [6]: Non-toxic
